Literature values, collected in patent US20120269803A1, “SUBSTITUTED BENZOSULPHONAMIDES” (BAYER INTELLECTUAL PROPERTY GMBH, priority 2009, published 2012).

Tests used:
[1] = test system: colon cancer; settings: oral treatment, mouse models, literature [18]
[2] = test system: MEK1/2; settings: MEK1/2 inhibitor, literature [17]
[3] = phase I/II clinical trials in humans, literature [19]

Structure (SMILES): O=C(NOCC1CC1)c1ccc(F)c(F)c1Nc1ccc(I)cc1Cl [PD184352]
- colon cancer growth in vivo [1]: inhibit colon cancer growth in vivo
- IC50 [2]: low nanomolar range
- clinical efficacy [3]: insufficient efficacy
